This note sets out measurements from ChEMBL document CHEMBL5104094, “Chemistry, biosynthesis and biological activity of terpenoids and meroterpenoids in bacteria and fungi isolated from different marine habitats” (Eur J Med Chem, 2021).

Usually IC50 stands for the midpoint of a concentration-inhibition curve. The MIC is the lowest concentration found to suppress growth. In general, inhibition refers to the percentage by which the read-out fell short of the control. What is called EC50 is the concentration giving half of the maximal effect.

Values after ≈ are worked out from the molar mass of the structure shown.

The test system of one series is SW-620. The experiment in a line: Antitumor activity against human SW620 cells xenografted in BALB/c nude mouse assessed as tumor growth inhibition at 10 mg/kg/day, ip for 28 days relative to control. The settings on record: SW-620, 672 h, time 28 day, read-out: TGI. The series is classed as functional. (In general: In xenograft studies the graft and the host belong to different species.)

Series [1] has as its system HL-60. The series is described as follows: Cytotoxicity against human HL-60 cells assessed as cell growth inhibition. The series is classed as functional, cell-based.
Another series deals with Bel-7402. The series is described as follows: Cytotoxicity against human Bel-7402 cells assessed as cell growth inhibition. In kind it is functional, cell-based.
The target of series [2] is Phosphotyrosine-protein phosphatase PTPB (Mycobacterium tuberculosis, UniProt P96830). The experiment in a line: Inhibition of N-terminal His6-tagged full-length Mycobacterium tuberculosis H37Rv PTPB expressed in Escherichia coli BL21 (DH3) using fluorogenic phosphatase substrate by fluorescence based assay.
Series [3] is described as follows: Suppression of spontaneous calcium oscillation frequency in C57Bl/6J mouse primary neocortical neuron incubated for 15 mins by Fluo-4 dye based assay. The series is classed as functional, cell-based. To be noted: 0.25 h.
Series [4] can be described thus: Suppression of spontaneous calcium oscillation frequency in 4-AP-induced C57Bl/6J mouse primary neocortical neuron incubated for 25 mins by Fluo-4 dye based assay. In kind it is functional, cell-based.
A short description of series [5]: Suppression of spontaneous calcium oscillation amplitude in C57Bl/6J mouse primary neocortical neuron incubated for 15 mins by Fluo-4 dye based assay. The series is classed as functional, cell-based. To be noted: 0.25 h.
The nature of series [6]: Suppression of spontaneous calcium oscillation amplitude in 4-AP-induced C57Bl/6J mouse primary neocortical neuron incubated for 25 mins by Fluo-4 dye based assay. In kind it is functional, cell-based.
Another series relates to Edwardsiella tarda. The experiment in a line: Antimicrobial activity against Edwardsiella tarda assessed as microbial growth inhibition. The series is classed as functional.
The subject of series [7] is Ceratobasidium cornigerum. The experiment in a line: Antimicrobial activity against Ceratobasidium cornigerum assessed as microbial growth inhibition. The series is classed as functional.
The test system of another series is RAW264.7. The series is described as follows: Inhibition of NO production in LPS-stimulated mouse RAW264.7 cells at 10 uM relative to control. The series is classed as functional.
A short description of series [8]: Hemolytic activity against human erythrocytes assessed as induction of cell lysis. In kind it is toxicity, cell-based, Erythrocyte.
The next series has as its system Staphylococcus aureus. The experiment in a line: Antimicrobial activity against Staphylococcus aureus assessed as microbial growth inhibition micro broth dilution assay. The series is classed as functional, organism-based. In general terms: Dilution methods test growth across graded concentrations, often in twofold steps.
In another series the test system is Cryptococcus neoformans. The series is described as follows: Antimicrobial activity against Cryptococcus neoformans assessed as microbial growth inhibition micro broth dilution assay. In kind it is functional, organism-based.
The test system of the next series is Bacillus subtilis. The series is described as follows: Antimicrobial activity against Bacillus subtilis assessed as microbial growth inhibition micro broth dilution assay. The series is classed as functional, organism-based.
The next series concerns Candida albicans. The series is described as follows: Antimicrobial activity against Candida albicans assessed as microbial growth inhibition micro broth dilution assay. In kind it is functional, organism-based.
Another series has as its system Candida parapsilosis. The experiment in a line: Antimicrobial activity against Candida parapsilosis assessed as microbial growth inhibition micro broth dilution assay. The series is classed as functional, organism-based. To be noted: Lodderomyces parapsilosis.
Series [9] relates to A549. The experiment in a line: Cytotoxicity against human A549 cells assessed as cell growth inhibition. In kind it is functional, cell-based.
Series [10] is described as follows: Cytotoxicity against human HTB26 cells assessed as cell growth inhibition by Alamar blue staining based fluorescence assay. The series is classed as functional. For orientation: Alamar Blue is a resazurin reagent that responds to reducing activity.
Series [11] is described as follows: Cytotoxicity against African green monkey cells assessed as cell growth inhibition by Alamar blue staining based fluorescence assay. In kind it is toxicity. The settings on record: African green monkey (Chlorocebus sabaeus), Vero cells.
For series [12], the system named is MCF7. The series is described as follows: Cytotoxicity against human MCF7 cells assessed as cell growth inhibition by Alamar blue staining based fluorescence assay. The series is classed as functional.
A further series deals with HCT-116. The experiment in a line: Cytotoxicity against human HCT-116 cells assessed as cell growth inhibition by Alamar blue staining based fluorescence assay. In kind it is functional.
Series [13] concerns HL-60. The series is described as follows: Cytotoxicity against human HL-60 cells assessed as cell growth inhibition by MTT assay. In kind it is functional, cell-based.
In series [14] the test system is A549. The series is described as follows: Cytotoxicity against human A549 cells assessed as cell growth inhibition by SRB assay. The series is classed as functional, cell-based.
Series [15] relates to NCI-H460. The experiment in a line: Cytotoxicity against human NCI-H460 cells assessed as cell growth inhibition incubated for 48 hrs by MTT assay. The settings on record: NCI-H460, 48 h. The series is classed as functional, cell-based.
The subject of series [16] is NCI-H460. The experiment in a line: Induction of apoptosis in human NCI-H460 cells assessed as fold increase in […] at 35 uM incubated for 48 hrs by Annexin V-FITC/PI staining based flow cytometry. In kind it is functional.
Series [17] deals with MCF7. The experiment in a line: Antitumor activity against Adriamycin-resistant human MCF7 cells xenografted in athymic nude BALB/c mouse assessed as tumor growth inhibition at 5 mg/kg, iv measured every 4 days for 40 days by caliper method relative to control. The series is classed as functional. The settings on record: MCF7, 960 h, time 40 day, read-out: TGI.
The subject of series [18] is MCF7. The experiment in a line: Antitumor activity against human MCF7 cells xenografted in athymic nude BALB/c mouse assessed as tumor growth inhibition at 10 mg/kg, iv measured every 4 days for 40 days by caliper method relative to control. The series is classed as functional. To be noted: MCF7, 960 h, time 40 day, read-out: TGI.
Series [19] relates to MCF7. The experiment in a line: Antitumor activity against Adriamycin-resistant human MCF7 cells xenografted in athymic nude BALB/c mouse assessed as tumor growth inhibition at 5 mg/kg, iv measured every 4 days for 40 days by caliper method in presence of Adriamycin relative to control. To be noted: MCF7, 960 h, time 40 day, read-out: TGI. In kind it is functional.
The subject of series [20] is MCF7. The series is described as follows: Antitumor activity against human MCF7 cells xenografted in athymic nude BALB/c mouse assessed as tumor growth inhibition at 5 mg/kg, iv measured every 4 days for 40 days by caliper method relative to control. The settings on record: MCF7, 960 h, time 40 day, read-out: TGI. In kind it is functional.
The subject of series [21] is MCF7. The series is described as follows: Antitumor activity against human MCF7 cells xenografted in athymic nude BALB/c mouse assessed as tumor growth inhibition at 20 mg/kg, iv measured every 4 days for 40 days by caliper method relative to PTX. The series is classed as functional. To be noted: MCF7, 960 h, time 40 day, read-out: TGI.
In series [22] the test system is MCF7. The experiment in a line: Antitumor activity against human MCF7 cells xenografted in athymic nude BALB/c mouse assessed as tumor growth inhibition at 20 mg/kg, iv measured every 4 days for 40 days by caliper method relative to control. In kind it is functional. To be noted: MCF7, 960 h, time 40 day, read-out: TGI.
The test system of a further series is NCI-H446. The series is described as follows: Cytotoxicity against human NCI-H446 assessed as inhibition of cell viability incubated for 48 hrs by MTT assay. To be noted: NCI-H446, 48 h. In kind it is functional, cell-based.
For series [23], the system named is NCI-H460. The series is described as follows: Cytotoxicity against human NCI-H460 assessed as inhibition of cell viability incubated for 48 hrs by MTT assay. In kind it is functional, cell-based. To be noted: NCI-H460, 48 h.
For series [24], the system named is SMMC-7721. The series is described as follows: Cytotoxicity against human SMMC-7721 cells assessed as cell growth inhibition incubated for 48 hrs by CCK8 assay. The series is classed as functional, cell-based. The settings on record: SMMC-7721, 48 h.
For series [25], the system named is SMMC-7721. The series is described as follows: Cytotoxicity against human SMMC-7721 cells assessed as cell growth inhibition incubated for 24 hrs by CCK8 assay. The series is classed as functional, cell-based. The settings on record: SMMC-7721, 24 h.

Sequence of Phosphotyrosine-protein phosphatase PTPB (P96830 whole entry): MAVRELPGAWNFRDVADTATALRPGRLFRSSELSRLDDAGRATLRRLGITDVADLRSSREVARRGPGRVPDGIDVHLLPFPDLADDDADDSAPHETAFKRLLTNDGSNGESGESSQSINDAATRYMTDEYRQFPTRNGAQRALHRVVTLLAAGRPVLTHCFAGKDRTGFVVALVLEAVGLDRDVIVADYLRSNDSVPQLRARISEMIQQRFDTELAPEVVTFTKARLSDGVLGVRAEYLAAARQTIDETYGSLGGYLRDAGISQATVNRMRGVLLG

In the case of `C=C1C(=O)C=C2C=C3[C@@H](O)C(C)(C)C[C@@]3(O)[C@]12C`, the inhibition in vivo at 10 mg/kg/day in the series with SW-620 was 50%.
Take `C[C@@H]1C=CC(=O)[C@@]2(C)CC[C@@H]3[C@@H]4[C@@](C)(CC[C@@]4(C)CO)C[C@@]132`: the IC50 was found to be 0.97 µM in the series with HL-60 [1] and 0.038 µM in the series with Bel-7402.
As for `CC(C)[C@H]1CC[C@@]2(C)CC[C@]3(CO)CC4=C(C(=O)O)CC[C@H]4[C@]4(C)C[C@@H]4[C@H]3[C@H]12`, in series [2], 18 µM corresponded to half-maximal inhibition (IC50).
`C=C1CC[C@H]2C(C)(C)[C@@H](O)CC[C@]2(C)[C@H]1CC(=O)[C@]1(O)C=C(CSC[C@H](O)C(=O)OC)C(=O)C1`: the IC50 in series [3] worked out at 3.2 µM; in [4], 10 µM; in [5] it was 1.8 µM; in [6], 4.6 µM.
Regarding `C=C(C)[C@H]1[C@H](OC(C)=O)C[C@H](C)[C@@]12CC=C(C)[C@@H](OC(=O)CCCCCCC/C=C\C/C=C\CCCCC)C2`, the figures for the MIC (in the series on Edwardsiella tarda; in series [7]) were 0.25 µg/mL (≈ 0.462 µM) and 0.5 µg/mL (≈ 0.925 µM), respectively.
In the series on RAW264.7, `CC1=CC(=O)C[C@@]2(C)CC[C@@H](C(C)CO)C[C@H]12` (some centres not stated) had an inhibition at 10 µM of 22.5%.
Turning to `Cc1cc2c(c(=O)o1)C[C@@H]1[C@@]3(C)[C@H](O)CC(=O)OC(C)(C)[C@@H]3[C@H](O)C[C@@]1(C)O2`, the EC50 in series [8] was 1150 µM.
`CC1=CC[C@@](O)([C@@]2(C)CCC(=O)O2)C[C@@H]1O`: the IC50 with Staphylococcus aureus, in the series with Cryptococcus neoformans, with Bacillus subtilis, in the series on Candida albicans and in the series with Candida parapsilosis was 3 µg/mL each time.
In the case of `CC1(C)CCC[C@@](C)(c2ccc(CO)cc2O)O1`, the IC50 with HL-60 [1] and with A549 [9] was > 50 µg/mL each time.
As to `C=C(C)C1C[C@H](O)C2(C)CCCC3C2C1CC(C)C3(C)CC/C(C)=C/[C@@H](O)[C@@H]1CCC(=O)c2c(OC)cc(OC)cc21` (some centres not stated), the IC50 in series [10] was 10.1 µM; in [11] it was 23.7 µM; in the series on MCF7 [12] it was 7.8 µM; with HCT-116 it was 11.9 µM.
Regarding `CO[C@]12C=C3[C@@H]4O[C@@H]4[C@H](OC(C)=O)[C@H](C)[C@@]3(C)C[C@]13O[C@]3(C)CO2`, the figures for the IC50 in the series on HL-60 [13] and in the series with A549 [14] were 28.3 µM and 5.2 µM, respectively.
For the molecule `C[C@]12C3=CC(=O)OCC3=C[C@H]3OC(=O)[C@@](C)(C=C[C@H]1O)[C@H]32` [ASPEROLIDE A], in the series with NCI-H460 [15], the IC50 was 17.7 µM. For the same molecule, the “fold change (FC)” value in the series on NCI-H460 [16] amounted to 2.9.
Regarding `CO[C@H]1O[C@@]2(OC)C[C@@](C)(O)[C@H]3C[C@@]4(C)CC[C@H]([C@@H](C)/C=C\C=C(C)C)[C@@H]4C/C=C/1[C@H]32` [OPHIOBOLIN O], the inhibition in vivo at 5 mg/kg is 23% in the series with MCF7 [17], 71% with MCF7 [19] and 35% with MCF7 [20]. Besides, the inhibition in vivo at 10 mg/kg in the series with MCF7 [18] came to 46%. Further, the values for the inhibition in vivo at 20 mg/kg in the series on MCF7 [21] and in the series with MCF7 [22] were 73% and 69%, respectively.
Regarding `C[C@@]12C3=CC(=O)OCC3=C[C@H]3OC(=O)[C@](C)([C@H]31)[C@@H](O)[C@H]1O[C@H]12` [WENTILACTONE A], the concentration for half-maximal inhibition (IC50) was determined as 1.9 µM with NCI-H446 and 5.56 µM in the series with NCI-H460 [23].
Consider `C[C@@]12C[C@@H](O)C[C@]3(C)C4=CC(=O)OCC4=C[C@@H](OC1=O)[C@@H]23` [WENTILACTONE B], for which the IC50 was determined as 19 µM with SMMC-7721 [24] and 31 µM in the series on SMMC-7721 [25].
